Measured values as given in publication PMC3937211, “Serine Carboxypeptidase SCPEP1 and Cathepsin A Play Complementary Roles in Regulation of Vasoconstriction via Inactivation of Endothelin-1” (PLoS Genetics, 2014).

Assays:
[1] = system: mice (arterial blood pressure); assay: Blood pressure response to intravenous peptide injection, radiotelemetry; type: in vivo, mouse; conditions: for BP response to i.v. injection: 0.2 nmol/kg i.v.
Experimental: This hypothesis was further tested by measuring changes in BP in response to ET-1 and AI, the precursor of vasoconstrictive peptide AII. The changes in the diastolic and systolic BP (ΔDBP and ΔSBP, respectively) were calculated as the differences between the measured BP values and the basal values measured for the 30 min interval preceding the injection. To reduce the impact of the stress on BP caused by animal handling/injection, animals were receiving daily saline injections for 3 days prior to the experiment.
Figure 3 Mice with combined CathA/Scpep1 deficiency show higher increase in BP in response to systemic injection of ET-1. Sixteen week-old WT, Scpep1^−/−, CathA^S190A and DD male mice kept for two weeks on high-salt diet were intravenously injected with ET-1 solution in saline at a dose of 0.2 nmol/kg (A, B) and 5 nmol/kg (C, D). Changes in the systolic (ΔSBP) or diastolic (ΔDBP) blood pressure were calculated as differences between the means (±S.E) of the BP values recorded within 10 min intervals after the injections and means (±S.E) of the baseline BP values recorded within the 30 min interval before the injections. Two-way repeated measurements ANOVA was used to test differences between the mouse groups: significant differences between the mean BP values in Bonferroni post-test (* p<0.05, ** p<0.001, *** p<0.0001) are shown in the insert. N-value for each genotype is as follows: WT n = 5, DD n = 6, CathA^S190A n = 6, Scpep1 ^−/− n = 7.
Male CathA^S190A mice and appropriate littermate controls were implanted with TA11PA-C10 radiotelemetry sensors (Data Sciences International) in the left carotid artery for direct measurement of arterial pressure and heart rate as described, [38]. The transmitter was placed subcutaneously along the left flank. For basal measurements of mean day and night BP data were recorded continuously (sampling every hour for 20 sec) within 16 consecutive days and averaged for 12 h light and dark intervals. To measure changes in BP after ET-1 and AI injections data were recorded every 3 min for 2 h and averaged for 10-min consecutive intervals. […]

[2] = ET-1 degradation rate in mouse blood and tissues (ELISA); type: in vivo; conditions: tail vein injection, at least 5 mice
Experimental: To determine the ET-1 degradation rate we injected mice in the tail vein with an ET-1 solution in saline at a dose of […]. Fifteen minutes after injection mice were sacrificed and their lungs and aorta as well as blood were collected to measure the concentration of ET-1 by ELISA. Endogenous levels of ET-1 were measured in the animals injected with saline.
Figure 6 Mice with combined CathA/Scpep1 deficiency have reduced ET-1 degradation rate. Blood plasma, lungs and aorta were collected from WT, Scpep1 ^−/−, CathA^S190A and DD mice 15 min post an intravenous injection of saline or ET-1 in saline (10 nmol/kg BW). The levels of ET-1 peptide were measured by ELISA in lung extracts (A), aorta extracts (B), and in blood plasma extracts (C) from mice injected with ET-1 and blood plasma extracts from mice injected with saline (D). Data are expressed as mean values (±S.E). At least 5 mice were studied for each genotype. * p<0.05 in Welch's modification of two-tailed unpaired t-test. […]
For peptide extraction, tissues (200 mg) were homogenized in 1 mol/L CH3COOH/20 mM HCl. […] Quantitative assay of ET-1 was performed with an ELISA kit (Enzo Life Sciences ADI-900-020A) as described by the manufacturer.

endothelin-1 [ET-1]
BP response to i.v. injection ([1]; DD mice versus other genotypes, high-salt diet): higher response as compared to all other groups of mice | BP response to i.v. injection ([1]; WT and Scpep1-deficient mice on high-salt diet): no BP increase | time BP remained significantly elevated after injection ([1]; 5 nmol/kg i.v., DD mice): at least 60 min | ET-1 concentration 15 min after injection versus WT or Scpep1-deficient animals ([2]; lungs and aorta of CathA-deficient mice): higher | ET-1 concentration 15 min after injection versus WT, CathA-deficient or Scpep1-deficient mice ([2]; tissues or plasma of DD mice, dose printed 0.1 nmol/kg BW): significantly higher
